Test results as given in PubChem BioAssay AID1959 (Broad Institute, 2009).
Active and inactive are the calls of the source.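 The calls were made as follows: active = growth-inhibition EC50 no more than tenfold above the top tested dose; inconclusive = flat fit between 30% and 70% inhibition, or unreliable fit; inactive = EC50 more than tenfold above the top tested dose.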

These compounds were tested on E. coli NEB5alpha growth, BacTiter-Glo luminescence, 4 h (assay: antibacterial activity against E. coli NEB5alpha – luminescence, counter-screen for MEX-5/POS-1 RNA-binding inhibitor project, dose response (AID 1959);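 also: pUC19-transformed ampicillin-resistant cells grown in LB with ampicillin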).

SMILES	EC50
CS(=O)(=O)Oc1ccc2c(c1)O/C(=C\C=C\c1ccccc1)C2=O	> 11 µM (inactive)
CCOc1cc(/C=C2\C(=N)N3N=C(S(C)(=O)=O)SC3=NC2=O)ccc1OCCOc1cccc(OC)c1	> 11 µM (inactive)
O=C(N=C1SC2CS(=O)(=O)CC2N1c1ccccc1)C1CC1 (stereo unspecified)	> 11 µM (inactive)
N#CC1=C(N)Oc2ccc3ccc(O)cc3c2C1c1ccsc1 (stereo unspecified)	> 11 µM (inactive)
COC(=O)c1ccc(-n2c(C)cc(C(=O)CCl)c2C)cc1	> 11 µM (inactive)
COc1ncnc2c1NC1=C(S2)C(=NCCC(=O)O)CC(C)(C)C1	> 11 µM (inactive)
CCC(C)(C)NC(=O)C(c1cccn1C)N(C(=O)Cn1nnc2ccccc21)c1ccc(OC)cc1 (stereo unspecified)	> 11 µM (inactive)
COc1ccc(CCNC(=O)c2nn(C)c3c2CS(=O)(=O)c2ccccc2-3)cc1OC	> 11 µM (inactive)
CNC(=O)NC(=O)COC(=O)c1ccc(-n2c(C)ccc2C)cc1	> 11 µM (inactive)
CC1(C)CC(=O)C2=C(C1)OC(N)=C(C#N)[C@@H]2c1ccccc1[N+](=O)[O-]	> 11 µM (inactive)
CC(=O)Nc1ccc(NC(=O)C(C)OC(=O)/C(C#N)=C/c2ccc(N(C)C)cc2)cc1 (stereo unspecified)	> 11 µM (inactive)
Cc1cc(/C=C2\C(=O)NC(=O)N(C)C2=O)c(C)n1-c1ccc2c(c1)OCO2	> 11 µM (inactive)
O=C(N/N=C/c1ccc(O)c(O)c1)N/N=C/c1ccc(O)c(O)c1	> 11 µM (inactive)
CC(=O)N=c1c(C#N)cc2c(=O)n3cccc(C)c3nc2n1CCCOC(C)C	> 11 µM (inactive)
C(=N\Nc1nc2ccccc2[nH]1)/c1ccccn1	> 11 µM (inactive)
CC(C)CNC(=O)C1Nc2ccccc2C2C=CCC12 (stereo unspecified)	> 11 µM (inactive)
Oc1ccc(/C=N/Nc2ccc(Cl)nn2)c(O)c1O	> 11 µM (inactive)
Cn1c(=O)c(N)c2c3c(c(Br)ccc31)C(=O)c1ccccc1-2	> 11 µM (inactive)
O=C(O)c1cc(O)c2c(c1)[C@H]([C@H]1c3cc(C(=O)O)cc(O)c3C(=O)c3c(O[C@@H]4O[C@H](CO)[C@@H](O)[C@H](O)[C@H]4O)cccc31)c1cccc(OC3O[C@H](CO)[C@@H](O)[C@H](O)[C@H]3O)c1C2=O (stereo partly specified)	> 11 µM (inactive)
COc1ccc(OC)c(C2Nc3c(Cl)ccc(C(=O)O)c3C3C=CCC32)c1 (stereo unspecified)	> 11 µM (inactive)
CCOc1cc(/C=C/c2cccc[n+]2C)ccc1OCC(=O)Nc1ccc(C)cc1	> 11 µM (inactive)
C=CCn1c(O)c(/C=C/C=Nc2ccccc2)c(=O)[nH]c1=O	> 11 µM (inactive)
CCOc1ccc(-c2nn(-c3ccccc3)cc2/C=C2\SC(=S)N(C3CCS(=O)(=O)C3)C2=O)cc1 (stereo unspecified)	> 11 µM (inactive)
CN=C1S/C(=C\c2ccc(N3CCCC3)c(F)c2)C(=O)N1C	> 11 µM (inactive)

SMILES	EC50
O=c1oc2ccc3ccccc3c2cc1-c1nc2ccccc2o1	> 11 µM (inactive)
Cc1ccc(N=Nc2c(O)[nH]c3ccc(F)cc23)cc1	> 11 µM (inactive)
CN1C(=O)C(=Cc2cn(CC(=O)N3CCCC3)c3ccccc23)C(=O)N(C)C1=O	> 11 µM (inactive)
COC(=O)c1ccccc1-n1c(CCC(=O)O)ccc1-c1ccccc1	> 11 µM (inactive)
COc1ccc(C(=O)/C=C2\NCC3c4ccccc4CCN3C2=O)cc1 (stereo unspecified)	> 11 µM (inactive)
COC(=O)CCC(=O)OC1(C)C(=O)C=C2C=C(C3CC3)OC=C2C1=O (stereo unspecified)	> 11 µM (inactive)
COc1cc2c(cc1OC)-c1c(OC)c(OC)c(OC)c3ccnc(c13)C2=O	> 11 µM (inactive)
CN(C)c1ccc2nc3ccc(=[N+](C)C)cc-3sc2c1	> 11 µM (inactive)
CCCc1c(O)nc(SCC(=O)N2CCCCC2)[nH]c1=O	> 11 µM (inactive)
COCCN1CCC(CNCc2c(C(=O)N3CCCCC3)nc3c(C)cccn23)C1 (stereo unspecified)	> 11 µM (inactive)
CCN1C(=C(C#N)C#N)C=Cc2ccccc21	> 11 µM (inactive)
O=C(O)c1ccccc1-n1c2ccccc2c2ccccc21	> 11 µM (inactive)
CC(=O)c1cc(NC(=O)c2ccc(Cl)cc2)c(=O)oc1/C=C/N(C)C	> 11 µM (inactive)
COc1cc(C2C(C#N)=C(N)OC3=C2C(=O)CC(C)(C)C3)cc([N+](=O)[O-])c1O (stereo unspecified)	> 11 µM (inactive)
CC1(OC(=O)c2ccco2)C(=O)C=C2C=C(c3ccsc3)OC=C2C1=O (stereo unspecified)	> 11 µM (inactive)
S=C(NCc1ccncc1)Nc1ccc(Cl)cc1Cl	> 11 µM (inactive)
Cc1n[nH]c(C)c1Sc1ccccc1N=Cc1cc(Cl)cc([N+](=O)[O-])c1O	> 11 µM (inactive)
CCN(CC)c1ccc2cc(C#N)c(=O)oc2c1	> 11 µM (inactive)
CNc1c(N)n(Cc2ccccc2)c(=O)[nH]c1=O	> 11 µM (inactive)
O=C(N/N=C/c1c(O)n(Cc2ccccc2)c(=O)[nH]c1=O)c1ccncc1	> 11 µM (inactive)
Cc1ccc(/C(O)=C/c2nc3ccccc3oc2=O)cc1	> 11 µM (inactive)
NC(=O)c1cccc(N=Cc2cc(Cl)cc(Cl)c2O)c1	> 11 µM (inactive)
COc1ccc(N2C(=O)NC(=O)/C(=C\c3cn(CC(=O)N4CCOCC4)c4ccccc34)C2=O)c(OC)c1	> 11 µM (inactive)
COc1ccc(N/C=C\C(=O)c2ccc(C)cc2)cc1OC	> 11 µM (inactive)

SMILES	EC50
Cc1cc(=O)n2[nH]c(N)c(N=Nc3ccccc3)c2n1	> 11 µM (inactive)
Cc1ccc(CN(C)C(=O)CC2C(=O)NCCN2CC2CCCCC2)cc1 (stereo unspecified)	> 11 µM (inactive)
CCn1c(C)cc(=S)c2ccccc21	> 11 µM (inactive)
CCOC(=O)C1=C(C)OC(N)=C(C#N)C1c1ccc(O)c(OC)c1 (stereo unspecified)	> 11 µM (inactive)
COc1cc(C2C(C#N)=C(N)Oc3n[nH]c(-c4cccnc4)c32)cc(Br)c1O (stereo unspecified)	> 11 µM (inactive)
CCN1C(=O)NC(=O)/C(=C\c2cn(CC(=O)O)c3ccccc23)C1=O	> 11 µM (inactive)
COc1cc(C(CC(=O)N2CCCC2)c2c(OC)cc(OC)c3ccc(=O)oc23)cc(OC)c1OC (stereo unspecified)	> 11 µM (inactive)
Cc1cc(=O)oc2c(CN3CCC(C)CC3)c(O)c(Cl)cc12	> 11 µM (inactive)
CCN1/C(=C2/SC(=S)N(NC(C)=O)C2=O)Sc2ccccc21	> 11 µM (inactive)
O=C(NC(=S)NNS(=O)(=O)c1ccccc1)c1cccnc1	> 11 µM (inactive)
O=C(NNC(=O)c1ccccc1[N+](=O)[O-])c1cnccn1	> 11 µM (inactive)
O=C(NNC(=O)c1ccccc1O)c1ccc(S(=O)(=O)Nc2ccccc2F)cc1	> 11 µM (inactive)
O=C(O)Cc1ccc(O)c(O)c1	> 11 µM (inactive)
COc1ccc(Nc2nc3ccccc3nc2NS(=O)(=O)c2cccs2)c(OC)c1	> 11 µM (inactive)
NS(=O)(=O)c1ccc(Nc2nc(-c3ccc(O)cc3O)cs2)cc1	> 11 µM (inactive)
CC(C)c1ccc(/C=C(\NC(=O)c2ccccc2)C(=O)NCCN2CCOCC2)cc1	> 11 µM (inactive)
COC(=O)c1ccccc1-n1c(CCC(=O)O)ccc1-c1ccc(F)cc1	> 11 µM (inactive)
Cc1c(/C=N/Nc2ccc(F)cc2)c(O)n(C)c(=O)c1C#N	> 11 µM (inactive)
CCNc1nn2ccccc2c1/C=C(\C#N)C(=O)OCC	> 11 µM (inactive)
CC1CCCN(c2nc3ccccc3nc2C(C#N)S(=O)(=O)c2cccs2)C1 (stereo unspecified)	> 11 µM (inactive)
O=C(O)c1ccc(N/N=C/C2=C(N3CCOCC3)C(=C\c3ccccc3)/CC2)cc1	> 11 µM (inactive)
NC(=O)C[n+]1cccc2ccccc21	> 11 µM (inactive)
O=c1[nH]c(=S)[nH]c2[nH]c(=S)[nH]c12	> 11 µM (inactive)
O=S(=O)(NNC(=S)Nc1ccc(S(=O)(=O)Nc2ncccn2)cc1)c1ccc(Br)cc1	> 11 µM (inactive)

SMILES	EC50
Oc1ccc(C[C@H]2NCCc3cc(O)c(O)cc32)cc1O	> 11 µM (inactive)
CCCNc1c(F)c(F)c2c(C)c3ccccc3nc2c1F	> 11 µM (inactive)
CCN(CC)c1ccc(/C=N/NC(=O)c2ccco2)c(O)c1	> 11 µM (inactive)
Cc1ccc(/C(O)=C/c2nc3cc(C)ccc3oc2=O)cc1	> 11 µM (inactive)
N#CC1=C(N)OC2=C(C(=O)CCC2)C1c1cc2c(cc1Cl)OCO2 (stereo unspecified)	> 11 µM (inactive)
COc1ccc(Nc2ncnc3nc[nH]c23)cc1OC	> 11 µM (inactive)
CSCC(C)N1CCC(Oc2cccc(C(=O)NCc3ccccn3)c2)CC1 (stereo unspecified)	> 11 µM (inactive)
O=C(NNC(=O)c1csc(-c2cccnc2)n1)c1ccccc1	> 11 µM (inactive)
CCC(=O)OC1(C)C(=O)C2=COC(c3ccc(OC)cc3)=CC2=C(Br)C1=O (stereo unspecified)	> 11 µM (inactive)
CN1CCc2cc(O)cc3c2[C@H]1Cc1ccc(O)c(O)c1-3	> 11 µM (inactive)
O=C(O)CSc1cc(NS(=O)(=O)c2ccc(Br)cc2)c2ccccc2c1O	> 11 µM (inactive)
Cn1c(O)c(/C=C2/C=CC=N2)c(=O)[nH]c1=O	> 11 µM (inactive)
COC(=O)c1ccc(-n2c(C)ccc2-c2ccccc2)cc1	> 11 µM (inactive)
Cc1ccc(N2C(=O)/C(=C/c3ccc(CN(CCC#N)S(C)(=O)=O)o3)C(=O)NC2=S)cc1C	> 11 µM (inactive)
Cc1ccc(/C=C/C(=O)O)cc1S(=O)(=O)N1CCCCC1	> 11 µM (inactive)
Cc1cc(/C=c2/sc3nc4ccccc4n3c2=O)c(C)n1-c1ccccn1	> 11 µM (inactive)
CCc1ccc(/C=C2\Oc3c(ccc(O)c3CN3CCN(CCO)CC3)C2=O)cc1	> 11 µM (inactive)
CC1(C)CC(=O)C2=C(C1)Nc1ccccc1S2	> 11 µM (inactive)
COc1ccccc1NC(=O)/C(C#N)=C/c1cc([N+](=O)[O-])ccc1N1CCCC1	> 11 µM (inactive)
CN1/C(=C/C=C(C#N)C#N)C(C)(C)c2ccccc21	> 11 µM (inactive)
CCCCC1=CC2=C(c3ccco3)C(=O)C(C)(OC(=O)c3ccc(OC)cc3)C(=O)C2=CN1C1CC1 (stereo unspecified)	> 11 µM (inactive)
CCCCC1=CC2=CC(=O)C(C)(O)C(=O)C2=CO1 (stereo unspecified)	> 11 µM (inactive)
C=CCN1C(=O)S/C(=C\c2ccc(N3CCOCC3)cc2C)C1=O	> 11 µM (inactive)
Cc1ccc(S(=O)(=O)N2CCOCC2)cc1NC(=O)CN(C)C1CCS(=O)(=O)C1 (stereo unspecified)	> 11 µM (inactive)
